In patent US6020370A, “Bridged cyclic amino acids as pharmaceutical agents” (Warner-Lambert Company, priority 1998, dated 2000):

Molecular target: T1, α2 δ subunit of a calcium channel (Sus scrofa, UniProt A0A287BIN3)
T1 construct: derived from porcine brain tissue; from tissue; host or cells: porcine brain tissue
Assay: Radioligand binding assay using [^3 H]gabapentin and the α2 δ subunit derived from porcine brain tissue
Conditions: Table 1, [^3 H]gabapentin

T1 sequence (A0A287BIN3 entry or part of it): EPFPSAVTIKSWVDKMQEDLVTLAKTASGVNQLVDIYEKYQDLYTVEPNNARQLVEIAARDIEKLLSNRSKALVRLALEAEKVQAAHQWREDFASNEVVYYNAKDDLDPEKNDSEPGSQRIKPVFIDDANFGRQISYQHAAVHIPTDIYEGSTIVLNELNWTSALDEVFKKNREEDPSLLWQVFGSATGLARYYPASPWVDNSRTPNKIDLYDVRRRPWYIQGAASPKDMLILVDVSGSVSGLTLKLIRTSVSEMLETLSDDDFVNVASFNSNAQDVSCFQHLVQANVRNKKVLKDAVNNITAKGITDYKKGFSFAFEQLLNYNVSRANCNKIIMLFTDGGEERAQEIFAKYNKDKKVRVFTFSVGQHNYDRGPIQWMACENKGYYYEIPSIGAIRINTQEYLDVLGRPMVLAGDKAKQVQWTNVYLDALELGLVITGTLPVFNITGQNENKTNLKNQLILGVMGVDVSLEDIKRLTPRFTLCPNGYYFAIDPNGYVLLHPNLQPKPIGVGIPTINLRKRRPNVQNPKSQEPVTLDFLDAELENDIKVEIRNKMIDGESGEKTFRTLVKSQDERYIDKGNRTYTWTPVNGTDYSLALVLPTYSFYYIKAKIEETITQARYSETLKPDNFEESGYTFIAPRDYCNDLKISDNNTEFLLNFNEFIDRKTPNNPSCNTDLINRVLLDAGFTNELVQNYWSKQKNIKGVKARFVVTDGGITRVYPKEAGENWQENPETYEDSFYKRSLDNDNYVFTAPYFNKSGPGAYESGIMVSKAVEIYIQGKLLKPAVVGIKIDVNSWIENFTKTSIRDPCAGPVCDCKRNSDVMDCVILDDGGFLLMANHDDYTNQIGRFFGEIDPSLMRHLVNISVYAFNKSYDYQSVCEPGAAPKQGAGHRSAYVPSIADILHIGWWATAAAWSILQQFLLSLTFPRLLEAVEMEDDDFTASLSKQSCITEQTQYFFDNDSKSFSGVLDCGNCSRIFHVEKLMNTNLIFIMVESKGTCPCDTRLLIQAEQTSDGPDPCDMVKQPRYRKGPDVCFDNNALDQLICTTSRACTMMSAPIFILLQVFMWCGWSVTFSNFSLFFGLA

SMILES | IC50 [nM]
NCC1(CC(=O)O)CC2CCC1C2 (racemic) [Compound 5] | 103
NCC1(CC(=O)O)C2CCCC1CCC2 (centres unmarked) [Compound 3] | 47
